Tests used:
rCGGBP1 [1] = target: T1, rCGGBP1 (Homo sapiens, UniProt Q9UFW8); assay: in vitro Alu DNA immunoprecipitation with qPCR (anti-FLAG); type: binding; settings: 100 μM compound, 45 min, room temperature, PBS; Alu DNA 1 μg, protein 0.5 μg
T1 construct: gene CGGBP1; recombinant, C-terminal FLAG tag; about 20 kDa
T1 sequence (Q9UFW8 1-167): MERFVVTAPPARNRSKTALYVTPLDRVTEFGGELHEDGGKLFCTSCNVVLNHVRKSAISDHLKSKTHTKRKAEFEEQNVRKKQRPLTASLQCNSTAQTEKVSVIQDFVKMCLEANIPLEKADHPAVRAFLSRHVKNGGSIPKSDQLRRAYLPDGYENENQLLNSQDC
Method: in vitro Alu DNA immunoprecipitation with qPCR (anti-FLAG) on rCGGBP1 | Pre-incubation of rCGGBP1 with Givinostat reduces the amount of Alu DNA co-precipitating with FLAG-antibody by […]

rCGGBP1 [2] = target: T1, rCGGBP1; assay: DBID dot blot of protein binding to immobilised genomic DNA, chemiluminescence densitometry; settings: 100 μM compound, 45 min, 4 °C, RIPA buffer; sonicated HEK293T genomic DNA

Row | % reduction of co-precipitated Alu DNA at 100 μM (rCGGBP1 [1]) | Compound | DBID dot blot of protein binding to immobilised genomic DNA, chemiluminescence d (rCGGBP1 [2])
1 | 70-80% | CCN(CC)Cc1ccc2cc(COC(=O)Nc3ccc(C(=O)NO)cc3)ccc2c1 [Givinostat] | –
2 | – | CC(NC(=O)c1ccccc1/N=C/c1c(O)ccc2ccccc12)c1ccccc1 (stereo not drawn) [Sirtinol] | (ii) moderate inhibition (Sirtinol and Tenovin-I)
3 | – | CC(=O)Nc1ccc(NC(=S)NC(=O)c2ccc(C(C)(C)C)cc2)cc1 [Tenovin-1] | (ii) moderate inhibition (Sirtinol and Tenovin-I)

— paper PMC7576722, “An immunochemistry-based screen for chemical inhibitors of DNA-protein interactions and its application to human CGGBP1” (BMC Cancer, 2020)
